In ChEMBL document CHEMBL1130809, “Anti-inflammatory/antiarthritic ketonic bisphosphonic acid esters” (1998):

How the values were obtained:
Assay type in all cases: functional
Details in all cases: route oral
Mus musculus [1] = assay: Inhibition of delayed type hypersensitivity granuloma in mice following 10 mg/kg p.o. administration.
Mus musculus [2] = assay: Inhibition of antigen-induced arthritis in mice following 10 mg/kg p.o. administration.
Mus musculus [3] = assay: Compound was tested for antiarthritic activity in murine model of antigen-induced arthritis. upon 10 mg/kg peroral administration
Mus musculus [4] = assay: Compound was tested for antiarthritic activity in murine model of antigen-induced arthritis upon 10 mg/kg peroral administration
Mus musculus [5] = assay: Compound was tested for anti-inflammatory activity in delayed type hypersensitivity granuloma upon 100 mg/kg peroral administration
Mus musculus [6] = assay: Compound was tested for antiarthritic activity in murine model of antigen-induced arthritis upon 100 mg/kg peroral administration

Compound | inhibition in vivo at 10 mg/kg (Mus musculus [1]) | inhibition in vivo at 10 mg/kg (Mus musculus [2]) | also measured
CCOP(=O)(OCC)C(CCC(=O)c1ccco1)P(=O)(OCC)OCC | 23% | 11% | –
CCOP(=O)(OCC)C(CCC(=O)c1cccnc1)P(=O)(OCC)OCC | 51% | 61% | –
CCOP(=O)(OCC)C(CCC(=O)c1ccccn1)P(=O)(OCC)OCC | 43% | 47% | –
CCOP(=O)(OCC)C(CCC(=O)c1cccc(NS(C)(=O)=O)c1)P(=O)(OCC)OCC | 37% | 33% | –
CCOP(=O)(OCC)C(CCC(=O)c1ccc(NC(=O)c2ccccc2)cc1)P(=O)(OCC)OCC | 63% | 4% | –
CCOP(=O)(OCC)C(CCC(=O)c1cccc(Br)c1)P(=O)(OCC)OCC | 59% | 22% | –
CCOP(=O)(OCC)C(CCC(O)c1ccccc1)P(=O)(OCC)OCC (stereo not given) | 39% | – | –
CCOP(=O)(OCC)C(CCC(=O)c1cccc(F)c1)P(=O)(OCC)OCC | 44% | 40% | ED30 (Mus musculus [3]): 0.1 mg/kg
CC1(C)COP(=O)(C(CCC(=O)c2cccnc2)P2(=O)OCC(C)(C)CO2)OC1 | 38% | 28% | ED30 (Mus musculus [3]): 0.4 mg/kg
CCOP(=O)(OCC)C(CCC(=O)c1cccc(Cl)c1)P(=O)(OCC)OCC | 10% | 26% | –
CCOP(=O)(OCC)C(CCCc1ccccc1)P(=O)(OCC)OCC | 44% | 11% | –
CCOC(=O)Nc1ccc(C(=O)CCC(P(=O)(OCC)OCC)P(=O)(OCC)OCC)cc1 | 43% | 18% | –
CC1(C)COP(=O)(C(CCC(=O)c2ccccc2)P2(=O)OCC(C)(C)CO2)OC1 | 36% | – | –
CC1(C)COP(=O)(C(CCC(=O)c2ccoc2)P2(=O)OCC(C)(C)CO2)OC1 | 45% | 16% | –
CCOP(=O)(OCC)C(CCC(=O)c1cccc(I)c1)P(=O)(OCC)OCC | 5% | – | –
CCOP(=O)(OCC)C(CCC(=O)c1ccccc1)P(=O)(OCC)OCC | 51% | 10% | –
CCOP(=O)(OCC)C(CC(=O)c1ccccc1)P(=O)(OCC)OCC | 7% | 11% | –
CCOP(=O)(OCC)C(CCC(=O)c1ccc(NC(C)=O)cc1)P(=O)(OCC)OCC | 75% | 10% | –
CC1(C)COP(=O)(C(CCC(=O)c2cccc(F)c2)P2(=O)OCC(C)(C)CO2)OC1 | < 57% | 48% | ED30 (Mus musculus [3]): 0.01 mg/kg
CCOP(=O)(OCC)C(CC(C(=O)c1ccccc1)c1ccccc1)P(=O)(OCC)OCC (stereo not given) | 65% | – | ED30 (Mus musculus [4]): 50 mg/kg; inhibition in vivo at 10 mg/kg (Mus musculus [4]): 54%
O=P(O)(O)C(Cl)(Cl)P(=O)(O)O [CLODRONIC ACID] | – | – | ED30 (Mus musculus [5]): 30 mg/kg; inhibition in vivo at 100 mg/kg (Mus musculus [5]): 48%; ED30 (Mus musculus [6]): 50 mg/kg; inhibition in vivo at 100 mg/kg (Mus musculus [6]): 42%
